*1 amine or outer side, *2 acyl side, *3 side chain or, on linkers, in order; H or OH if unused. Where a SMILES comes first, the peptide text is derived from it. Bridges are numbered along the chain shown (N, C = ends). [ ]: non-standard residue; d: D form. ξ: configuration not given here. Trp(1-CH2COOH) = N[C@@H](Cc1cn(CC(=O)O)c2ccccc12)C(=O)O; Phe(3,4,5-F3) = N[C@@H](Cc1cc(F)c(F)c(F)c1)C(=O)O; d(cisHyp) = O=C(O)[C@H]1C[C@@H](O)CN1; Hyp = O=C(O)[C@@H]1C[C@@H](O)CN1; NMeF = CN[C@@H](Cc1ccccc1)C(=O)O; X1 = O=C([C@H]1COCCN1[*:1])[*:2]; dHyp = O=C(O)[C@H]1C[C@H](O)CN1; NMeNle = CCCC[C@H](NC)C(=O)O; Pip = O=C(O)[C@@H]1CCCCN1; hSer = N[C@@H](CCO)C(=O)O; NMeA = CN[C@@H](C)C(=O)O; Orn = NCCC[C@H](N)C(=O)O; Dab = NCC[C@H](N)C(=O)O; Dap = NC[C@H](N)C(=O)O; ξC = NC(CS)C(=O)O
Each compound was assayed against T1, Human PD-L1/PD-1 (Homo sapiens, UniProt Q9NZQ7) (assay: HTRF Human PD-L1/PD-1 binding assay (PD-1-Ig/PD-L1-His)). Details: PD-L1-His 10 nM, PD-1-Ig 20 nM; class symbol; read-out: HTRF Human PD-L1/PD-1 Binding Assay IC50 Range.
T1 construct: TVMV protease cleavage site (C); made in house; host or cells: HEK293T cells
In short: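 Step 1: compound with PD-L1-His (10 nM final), 15 min. Step 2: PD-1-Ig (20 nM final), 15 min. Step 3: Eu-cryptate anti-Ig (1 nM) plus APC anti-His (20 nM), 30 min equilibration. Signal taken as 665 nm/620 nm ratio.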

T1 sequence (Q9NZQ7 with tags, fused parts or gaps): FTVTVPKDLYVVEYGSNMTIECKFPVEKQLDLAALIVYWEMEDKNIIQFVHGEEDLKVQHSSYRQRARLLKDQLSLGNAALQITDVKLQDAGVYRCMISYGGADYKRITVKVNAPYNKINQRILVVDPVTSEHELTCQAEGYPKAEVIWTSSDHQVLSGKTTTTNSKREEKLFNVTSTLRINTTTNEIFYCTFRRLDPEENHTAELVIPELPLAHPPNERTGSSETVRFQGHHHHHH

Structure (SMILES)	IC50 [nM]
CCCC[C@H]1C(=O)N(C)[C@@H](CCCC)C(=O)N[C@@H](CCC(=O)O)C(=O)N[C@H](C(=O)NCC(N)=O)CSCC(=O)N[C@@H](Cc2ccc(OC)cc2)C(=O)N(C)[C@@H](C)C(=O)N[C@@H](CCN)C(=O)N2CCC[C@H]2C(=O)N[C@@H](Cc2cnc[nH]2)C(=O)N[C@@H](CCCCN)C(=O)N2C[C@H](O)C[C@H]2C(=O)N[C@@H](Cc2c[nH]c3ccccc23)C(=O)N[C@@H](CC(=O)O)C(=O)N[C@@H](Cc2c[nH]c3ccccc23)C(=O)N1C [Example 7126] ({CH2CO}-Y(Me)[NMeA][Dab]PHK[Hyp]WDW[NMeNle][NMeNle]ECG-NH2; thioether N-14)	1000 to 10000
CCCC[C@H]1C(=O)N(C)[C@@H](CCCC)C(=O)N[C@@H](CCN)C(=O)N[C@H](C(=O)NCC(N)=O)CSCC(=O)N[C@@H](Cc2ccc(O)cc2)C(=O)N(C)[C@@H](C)C(=O)N[C@@H](CC(N)=O)C(=O)N2CCC[C@H]2C(=O)N[C@@H](CN)C(=O)N[C@@H](CCC(N)=O)C(=O)N2C[C@H](O)C[C@H]2C(=O)N[C@@H](Cc2c[nH]c3ccccc23)C(=O)N[C@@H](CO)C(=O)N[C@@H](Cc2cn(CC(=O)O)c3ccccc23)C(=O)N1C [Example 6119] ({CH2CO}-Y[NMeA]NP[Dap]Q[Hyp]WS[Trp(1-CH2COOH)][NMeNle][NMeNle][Dab]CG-NH2; thioether N-14)	1 to 9.9
CCCC[C@H]1C(=O)N2CCC[C@@H]2C(=O)N[C@@H](CO)C(=O)N[C@@H](C(C)C)C(=O)N(C)[C@@H](Cc2ccccc2)C(=O)N[C@@H](Cc2ccc(O)cc2)C(=O)N2CCC[C@@H]2C(=O)N[C@@H](Cc2c[nH]c3ccccc23)C(=O)N[C@@H](Cc2ccc(O)cc2)C(=O)N[C@@H](CC(C)C)C(=O)N[C@H](C(=O)NCC(N)=O)CSCC(=O)N[C@@H](Cc2ccccc2)C(=O)N(C)[C@@H](Cc2ccccc2)C(=O)N1C [Example 10067] ({CH2CO}-F[NMeF][NMeNle][dP]SV[NMeF]Y[dP]WYLCG-NH2; thioether N-13)	1 to 9.9
CCCC[C@H]1C(=O)N2CCC[C@@H]2C(=O)N[C@@H](CC(=O)O)C(=O)N[C@@H](C(C)C)C(=O)N(C)[C@@H](Cc2ccccc2)C(=O)N[C@@H](CCC(=O)O)C(=O)N2C[C@@H](O)C[C@@H]2C(=O)N[C@@H](Cc2c[nH]c3ccccc23)C(=O)N[C@@H](Cc2ccc(O)cc2)C(=O)N[C@@H](CC(C)C)C(=O)N[C@H](C(=O)NCC(N)=O)CSCC(=O)N[C@@H](Cc2cc(F)c(F)c(F)c2)C(=O)N(C)[C@@H](Cc2ccccc2)C(=O)N1C [Example 9285] ({CH2CO}-[Phe(3,4,5-F3)][NMeF][NMeNle][dP]DV[NMeF]E[dHyp]WYLCG-NH2; thioether N-13)	1 to 9.9
CCCC[C@H]1C(=O)N(C)[C@@H](CCCC)C(=O)N[C@@H](CCC(=O)O)C(=O)N[C@H](C(=O)NCC(N)=O)CSCC(=O)N[C@@H](Cc2ccc(OC)cc2)C(=O)N(C)[C@@H](C)C(=O)N[C@@H](CCN)C(=O)N2CCC[C@H]2C(=O)N[C@@H](CN)C(=O)N[C@@H](CCC(=O)O)C(=O)N2C[C@H](O)C[C@H]2C(=O)N[C@@H](Cc2c[nH]c3ccccc23)C(=O)N[C@@H](CCN)C(=O)N[C@@H](Cc2c[nH]c3ccccc23)C(=O)N1C [Example 7112] ({CH2CO}-Y(Me)[NMeA][Dab]P[Dap]E[Hyp]W[Dab]W[NMeNle][NMeNle]ECG-NH2; thioether N-14)	1 to 9.9

Now from value to compound:

IC50 [nM]	Structure (SMILES)
1 to 9.9	CCCC[C@H]1C(=O)N(C)[C@@H](CCCC)C(=O)N[C@@H](CC(=O)O)C(=O)N[C@H](C(=O)NCC(N)=O)CSCC(=O)N[C@@H](Cc2ccc(O)cc2)C(=O)N2CCCCC2C(=O)N[C@@H](CC(=O)O)C(=O)N2CCC[C@H]2C(=O)N[C@@H](Cc2c[nH]cn2)C(=O)N[C@@H](CCCN)C(=O)N2C[C@H](O)C[C@H]2C(=O)N[C@@H](Cc2c[nH]c3ccccc23)C(=O)N[C@@H](CCCN)C(=O)N[C@@H](Cc2csc3ccccc23)C(=O)N1C (some centres unmarked) [Example 1533]
1 to 9.9	CCCC[C@H]1C(=O)N(C)[C@@H](CCCC)C(=O)N[C@@H](CCC(=O)O)C(=O)N[C@H](C(=O)NCC(N)=O)CSCC(=O)N[C@@H](Cc2ccc(O)cc2)C(=O)N(C)[C@@H](C)C(=O)N[C@@H](CC(=O)O)C(=O)N2CCC[C@H]2C(=O)N[C@@H](CO)C(=O)N[C@@H](CCC(=O)O)C(=O)N2C[C@H](O)C[C@H]2C(=O)N[C@@H](Cc2c[nH]c3ccccc23)C(=O)N[C@@H](CO)C(=O)N[C@@H](Cc2c[nH]c3ccccc23)C(=O)N1C [Example 5233] ({CH2CO}-Y[NMeA]DPSE[Hyp]WSW[NMeNle][NMeNle]ECG-NH2; thioether N-14)
1 to 9.9	CCCC[C@H]1C(=O)N2C[C@H](O)C[C@@H]2C(=O)N[C@@H](CC(=O)O)C(=O)N[C@@H](C(C)C)C(=O)N(C)[C@@H](Cc2ccccc2)C(=O)N[C@@H](CCC(=O)O)C(=O)N2CCOC[C@@H]2C(=O)N[C@@H](Cc2c[nH]c3ccccc23)C(=O)N[C@@H](Cc2ccc(O)cc2)C(=O)N[C@@H](CCO)C(=O)N[C@H](C(=O)NCC(N)=O)CSCC(=O)N[C@@H](Cc2cc(F)c(F)c(F)c2)C(=O)N(C)[C@@H](Cc2ccccc2)C(=O)N1C [Example 10156] ({CH2CO}-[Phe(3,4,5-F3)][NMeF][NMeNle][d(cisHyp)]DV[NMeF]E[X1]WY[hSer]CG-NH2; thioether N-13)
1000 to 10000	CCCC[C@H]1C(=O)N[C@@H](CC(N)=O)C(=O)N2CCC[C@H]2C(=O)N[C@@H](CO)C(=O)N[C@@H](CCO)C(=O)N2C[C@H](O)C[C@H]2C(=O)N[C@@H](Cc2c[nH]c3ccccc23)C(=O)N[C@@H](CCO)C(=O)N[C@@H](Cc2c[nH]c3ccccc23)C(=O)N(C)[C@@H](C)C(=O)N(C)[C@@H](C)C(=O)N[C@@H](CCCN)C(=O)NC(C(=O)NCC(N)=O)CSCC(=O)N[C@@H](Cc2ccc(O)cc2)C(=O)N1C (some centres unmarked) [Example 10219] ({CH2CO}-Y[NMeNle]NPS[hSer][Hyp]W[hSer]W[NMeA][NMeA][Orn][ξC]G-NH2; thioether N-14)
1 to 9.9	CCCC[C@H]1C(=O)N(C)[C@@H](CCCC)C(=O)N[C@@H](CCCNC(=N)N)C(=O)N[C@H](C(=O)NCC(N)=O)CSCC(=O)N[C@@H](Cc2ccc(O)cc2)C(=O)N(C)[C@@H](C)C(=O)N[C@@H](CC(N)=O)C(=O)N2CCC[C@H]2C(=O)N[C@@H](Cc2cnc[nH]2)C(=O)N[C@@H](CCC(=O)O)C(=O)N2C[C@H](O)C[C@H]2C(=O)N[C@@H](Cc2c[nH]c3ccccc23)C(=O)N[C@@H](CO)C(=O)N[C@@H](Cc2cn(CC(=O)O)c3ccccc23)C(=O)N1C [Example 6228] ({CH2CO}-Y[NMeA]NPHE[Hyp]WS[Trp(1-CH2COOH)][NMeNle][NMeNle]RCG-NH2; thioether N-14)
1 to 9.9	CCCC[C@H]1C(=O)N(C)[C@@H](CCCC)C(=O)N[C@@H](CC(C)C)C(=O)N[C@H](C(=O)NCC(N)=O)CSCC(=O)N[C@@H](Cc2ccc(O)cc2)C(=O)N2CCCC[C@H]2C(=O)N[C@@H](CC(N)=O)C(=O)N2CCC[C@H]2C(=O)N[C@@H](CN)C(=O)N[C@@H](CC(C)C)C(=O)N2C[C@H](O)C[C@H]2C(=O)N[C@@H](Cc2c[nH]c3ccccc23)C(=O)N[C@@H](CCN)C(=O)N[C@@H](Cc2cn(CC(=O)O)c3ccccc23)C(=O)N1C [Example 1297] ({CH2CO}-Y[Pip]NP[Dap]L[Hyp]W[Dab][Trp(1-CH2COOH)][NMeNle][NMeNle]LCG-NH2; thioether N-14)

From patent US10538555B2, “Macrocyclic inhibitors of the PD-1/PD-L1 and CD80(B7-1)/PD-L1 protein/protein interactions” (BRISTOL-MYERS SQUIBB COMPANY, priority 2014, dated 2020)
